Molecules are shown by their SMILES.

This test deals with T1, F508del (Homo sapiens, UniProt P13569, DEL508-508).
T1 construct: expressed in transfected cells
T1 sequence (P13569 with tags, fused parts or gaps DEL508-508): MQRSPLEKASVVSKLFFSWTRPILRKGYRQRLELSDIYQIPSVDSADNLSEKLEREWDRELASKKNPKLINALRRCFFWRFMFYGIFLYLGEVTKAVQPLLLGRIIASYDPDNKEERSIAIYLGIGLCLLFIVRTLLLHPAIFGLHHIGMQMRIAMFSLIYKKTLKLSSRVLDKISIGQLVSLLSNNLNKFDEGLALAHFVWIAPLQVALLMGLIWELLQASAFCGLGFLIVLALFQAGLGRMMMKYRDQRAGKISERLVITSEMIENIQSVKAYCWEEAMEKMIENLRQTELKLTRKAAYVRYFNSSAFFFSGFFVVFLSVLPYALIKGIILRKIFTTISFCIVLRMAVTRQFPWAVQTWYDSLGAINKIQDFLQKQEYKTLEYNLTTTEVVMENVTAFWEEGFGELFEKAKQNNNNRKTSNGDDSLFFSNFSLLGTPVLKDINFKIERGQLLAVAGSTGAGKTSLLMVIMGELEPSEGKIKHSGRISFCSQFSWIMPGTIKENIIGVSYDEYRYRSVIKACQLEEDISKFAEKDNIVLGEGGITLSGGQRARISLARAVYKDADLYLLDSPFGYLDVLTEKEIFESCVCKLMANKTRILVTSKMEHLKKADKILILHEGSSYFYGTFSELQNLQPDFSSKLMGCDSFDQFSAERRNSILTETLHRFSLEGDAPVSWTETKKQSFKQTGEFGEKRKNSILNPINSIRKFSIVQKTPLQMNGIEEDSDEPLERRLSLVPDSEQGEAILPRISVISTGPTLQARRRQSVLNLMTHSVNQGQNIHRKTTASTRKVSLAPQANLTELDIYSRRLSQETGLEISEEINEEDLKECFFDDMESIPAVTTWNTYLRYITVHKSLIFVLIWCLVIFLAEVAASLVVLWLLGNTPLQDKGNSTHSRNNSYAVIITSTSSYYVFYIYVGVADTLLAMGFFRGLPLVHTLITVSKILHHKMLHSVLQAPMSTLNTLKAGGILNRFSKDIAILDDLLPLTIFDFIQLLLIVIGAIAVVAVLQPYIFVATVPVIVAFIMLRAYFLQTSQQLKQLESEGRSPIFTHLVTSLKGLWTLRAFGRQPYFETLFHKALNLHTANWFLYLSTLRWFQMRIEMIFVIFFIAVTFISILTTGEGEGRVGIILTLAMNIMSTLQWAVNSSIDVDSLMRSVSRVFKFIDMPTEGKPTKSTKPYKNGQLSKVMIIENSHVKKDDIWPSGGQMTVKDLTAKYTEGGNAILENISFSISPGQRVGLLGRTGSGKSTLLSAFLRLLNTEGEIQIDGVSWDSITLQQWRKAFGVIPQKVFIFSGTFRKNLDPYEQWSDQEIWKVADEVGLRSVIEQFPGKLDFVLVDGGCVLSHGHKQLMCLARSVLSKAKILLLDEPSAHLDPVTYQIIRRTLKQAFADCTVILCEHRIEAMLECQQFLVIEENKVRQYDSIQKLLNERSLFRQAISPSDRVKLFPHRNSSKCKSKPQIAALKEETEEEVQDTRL
The experiment in a line: Protocol 1: membrane potential optical assay (FLIPR III, voltage sensing dye), identification of potentiator compounds. It is filed as cell-based. Particulars: Table 3, compounds of Table 1. The essentials: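 Membrane potential in forskolin-activated, temperature-rescued F508del NIH 3T3 cells is followed with a voltage-sensing dye on FLIPR III. A chloride ion gradient created at the single addition step provides the driving force, after prior compound treatment.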
Regarding `Cc1cccc(C)c1Cn1nc(-c2cnc(N(C)C)nc2)cc1C(=O)NS(=O)(=O)c1ccccc1` [Compound 1678, N-(benzenesulfonyl)-5-[2-(dimethylamino)pyrimidin-5-yl]-2-[(2,6-dimethylphenyl)methyl]pyrazole-3-carboxamide], the EC30 result is recorded as “+ (“+” means greater than 10 uM)”.

As to `CC(C)Oc1ccc(-c2ccc(C(=O)NS(=O)(=O)c3cccc(N)n3)c(N3CCCC(C)(C)C3)n2)cn1` [Compound 1283, N-[(6-amino-2-pyridyl)sulfonyl]-2-(3,3-dimethyl-1-piperidyl)-6-(6-isopropoxy-3-pyridyl)pyridine-3-carboxamide], the EC30 entry is listed as “+++ (“+++” means <3 uM)”.

Turning to `CC1CN(c2ncccc2C(=O)NS(=O)(=O)c2cccc(Oc3ccc(F)cc3)n2)C(C)(C)C1` (centres unmarked) [Compound 1813, N—[[6-(4-fluorophenoxy)-2-pyridyl]sulfonyl]-2-(2,2,4-trimethylpyrrolidin-1-yl)pyridine-3-carboxamide], the EC30 result is given as “+++ (“+++” means <3 uM)”.

For `CCOC(=O)/C=C/c1cc(C(=O)NS(=O)(=O)c2cccc(N)n2)c(N2C[C@@H](C)CC2(C)C)nc1C(C)(C)C` [Compound 1490, Ethyl (E)-3-[5-[(6-amino-2-pyridyl)sulfonylcarbamoyl]-2-tert-butyl-6-[(4S)-2,2,4-trimethylpyrrolidin-1-yl]-3-pyridyl]prop-2-enoate], the EC30 result is given as “+++ (“+++” means <3 uM)”.

In the case of `CC1CN(c2nc(C(C)(C)C)c(C3=CCCCC3)cc2C(=O)NS(=O)(=O)c2cccc(N)n2)C(C)(C)C1` (centres unmarked) [Compound 1601, N-[(6-amino-2-pyridyl)sulfonyl]-6-tert-butyl-5-(cyclohexen-1-yl)-2-(2,2,4-trimethylpyrrolidin-1-yl)pyridine-3-carboxamide], the EC30 entry is recorded as “+++ (“+++” means <3 uM)”.

`Cc1ccc(-c2ccc(C(=O)NS(=O)(=O)c3cccc(N)n3)c(Oc3ccc(C)cc3C)n2)cc1` [Compound 1015, N-[(6-amino-2-pyridyl)sulfonyl]-2-(2,4-dimethylphenoxy)-6-(p-tolyl)pyridine-3-carboxamide]: the EC30 entry was “+++ (“+++” means <3 uM)”.

As to `COc1cccc(S(=O)(=O)NC(=O)c2ccc(-c3cc(F)cc(OCC(C)C)c3)nc2N2C[C@@H](C)CC2(C)C)c1` [Compound 1452, 6-(3-fluoro-5-isobutoxy-phenyl)-N-(3-methoxyphenyl)sulfonyl-2-[(4S)-2,2,4-trimethylpyrrolidin-1-yl]pyridine-3-carboxamide], the EC30 entry is “+++ (“+++” means <3 uM)”.

`CC(C)Oc1ccc(-c2ccc(C(=O)NS(=O)(=O)c3cccc(N)n3)c(N3CCC(F)(F)CC3)n2)cn1` [Compound 889, N-[(6-amino-2-pyridyl)sulfonyl]-2-(4,4-difluoro-1-piperidyl)-6-(6-isopropoxy-3-pyridyl)pyridine-3-carboxamide]: the EC30 entry was “++ (“++” means between 3 uM and 10 uM)”.

Regarding `CCC1CCCN(c2nc(-c3ccc(OC(C)C)nc3)ccc2C(=O)NS(=O)(=O)c2cccc(N)n2)C1` (centres unmarked) [Compound 1023, N-[(6-amino-2-pyridyl)sulfonyl]-2-(3-ethyl-1-piperidyl)-6-(6-isopropoxy-3-pyridyl)pyridine-3-carboxamide], the EC30 entry is listed as “+++ (“+++” means <3 uM)”.

On to `Cc1cc(C)c(Oc2nc3c(cc2C(=O)NS(=O)(=O)c2nccnc2N)CCCC3(C)C)c(C)c1` [Compound 1223, N-(3-aminopyrazin-2-yl)sulfonyl-8,8-dimethyl-2-(2,4,6-trimethylphenoxy)-6,7-dihydro-5H-quinoline-3-carboxamide], for which the EC30 result is “+++ (“+++” means <3 uM)”.

As for `CC(C)COc1cc(F)cc(-c2ccc(C(=O)NS(=O)(=O)c3cccc(N)n3)c(OC(C)c3ccccc3)n2)c1` (centres unmarked) [Compound 874, N-[(6-amino-2-pyridyl)sulfonyl]-6-(3-fluoro-5-isobutoxy-phenyl)-2-(1-phenylethoxy)pyridine-3-carboxamide], the EC30 entry is “+++ (“+++” means <3 uM)”.

With `CC(C)Oc1ccc(-c2ccc(C(=O)NS(=O)(=O)c3ccc[nH]c3=O)c(N3C[C@@H](C)CC3(C)C)n2)cc1` [Compound 1774, 6-(4-isopropoxyphenyl)-N-[(2-oxo-1H-pyridin-3-yl)sulfonyl]-2-[(4S)-2,2,4-trimethylpyrrolidin-1-yl]pyridine-3-carboxamide], the EC30 entry was “+++ (“+++” means <3 uM)”.

Turning to `CCCCCc1ccc(C(=O)NS(=O)(=O)c2cccc(N)n2)c(Oc2c(C)cc(C)cc2C)n1` [Compound 862, N-[(6-amino-2-pyridyl)sulfonyl]-6-pentyl-2-(2,4,6-trimethylphenoxy)pyridine-3-carboxamide], the EC30 entry is listed as “+++ (“+++” means <3 uM)”.

For `Cc1cc(C)c(CN2Cc3ccccc3C2(C)C(=O)NS(=O)(=O)c2cccc(N)c2)c(C)c1` (centres unmarked) [Compound 1273, N-(3-aminophenyl)sulfonyl-1-methyl-2-[(2,4,6-trimethylphenyl)methyl]isoindoline-1-carboxamide], the EC30 result is recorded as “+++ (“+++” means <3 uM)”.

In the case of `C[C@@H]1CN(c2nc(C3=CCCCO3)ccc2C(=O)NS(=O)(=O)c2cccnc2N)C(C)(C)C1` [Compound 1699, N-[(2-amino-3-pyridyl)sulfonyl]-6-(3,4-dihydro-2H-pyran-6-yl)-2-[(4S)-2,2,4-trimethylpyrrolidin-1-yl]pyridine-3-carboxamide], the EC30 entry is on record as “+++ (“+++” means <3 uM)”.

`Cc1cc(C)c(Oc2nc(-c3cc(F)cc(F)c3)ccc2C(=O)NS(=O)(=O)c2ccc[nH]c2=O)c(C)c1` [Compound 815, 6-(3,5-difluorophenyl)-N-[(2-oxo-1H-pyridin-3-yl)sulfonyl]-2-(2,4,6-trimethylphenoxy)pyridine-3-carboxamide]: the EC30 result is “++ (“++” means between 3 uM and 10 uM)”.

For the compound `CCOc1cccc2c1CN(Cc1c(C)cc(C)cc1C)C2(C)C(=O)NS(=O)(=O)c1cnc(NC(C)=O)s1` (centres unmarked) [Compound 1555, N-(2-acetamidothiazol-5-yl)sulfonyl-4-ethoxy-1-methyl-2-[(2,4,6-trimethylphenyl)methyl]isoindoline-1-carboxamide], the EC30 entry is listed as “+++ (“+++” means <3 uM)”.

Turning to `C[C@@H]1CN(c2nc(C3=CN(C(=O)OC(C)(C)C)CC3)ccc2C(=O)NS(=O)(=O)c2cccc(N)n2)C(C)(C)C1` [Compound 1684, tert-butyl 4-[5-[(6-amino-2-pyridyl)sulfonylcarbamoyl]-6-[(4S)-2,2,4-trimethylpyrrolidin-1-yl]-2-pyridyl]-2,3-dihydropyrrole-1-carboxylate], the EC30 entry is recorded as “+++ (“+++” means <3 uM)”.

For the compound `CC1CCN(c2nc(-c3ccc(C(C)C)cc3)ccc2C(=O)NS(=O)(=O)c2cccc(N)n2)CC1` [Compound 847, N-[(6-amino-2-pyridyl)sulfonyl]-6-(4-isopropylphenyl)-2-(4-methyl-1-piperidyl)pyridine-3-carboxamide], the EC30 entry is listed as “+++ (“+++” means <3 uM)”.

As to `Cc1cc(C)c(Oc2nc(C(C)(C)C)ccc2C(=O)NS(=O)(=O)c2cccc(NCCN(C)C)n2)c(C)c1` [Compound 947, 6-tert-butyl-N-[[6-(2-dimethylaminoethylamino)-2-pyridyl]sulfonyl]-2-(2,4,6-trimethylphenoxy)pyridine-3-carboxamide], the EC30 result is reported as “+++ (“+++” means <3 uM)”.

The values are drawn from US10758534B2 (Vertex Pharmaceuticals Incorporated, priority 2014, dated 2020).
